Usually IC50 stands for the concentration at which inhibition is half-maximal.

Counter-ions that a name gives are not always drawn. A value given as a limit tells only on which side of the number the result lay.

This experiment addresses LRRK2 wild-type (Homo sapiens (Human), UniProt Q5S007). In words: LanthaScreen LRRK2 Biochemical Activity Assay. To be noted: human recombinant LRRK2 (amino acids 970-2527) wild-type, ATP 57 μM, TR-FRET; read-out: IC50 (nM), inhibition of LRRK2 wild-type kinase activity. Here is the method: The ability of a compound of Formula (I) to inhibit LRRK2 kinase activity is measured using a LanthaScreen™ kinase activity assay. In general, in a LanthaScreen™ kinase activity assay, kinase, fluorescein-labeled substrate, and ATP are allowed to react. Then EDTA (to stop the reaction) and terbium-labeled antibody (to detect phosphorylated product) are added. In a LanthaScreen™ kinase reaction, the antibody associates with the phosphorylated fluorescein labeled substrate resulting in an increased TR-FRET value. The TR-FRET value is a dimensionless number that is calculated as the ratio of the acceptor (fluorescein) signal to the donor (terbium) signal. The amount of antibody that is bound to the tracer is directly proportional to the amount of phosphorylated substrate present, and in this manner, kinase activity can be detected and measured by an increase in the TR-FRET value. Accordingly, in this Example, enzyme reactions are carried out in a kinase reaction buffer in the presence or absence of representative compounds of Formula (I) at various concentrations in 384-well plate at room temperature for 60 minutes. The kinase reaction buffer contains human recombinant LRRK2 protein (amino acids 970-2527, 5 nM), ATP (57 μM for LRRK2 wild-type, 134 μM for G2019S mutant protein), Fluorescein-LRRKtide substrate (0.4 mM), 50 mM Tris pH 7.5, 10 mM MgCl2, 1 mM EGTA, 0.01% Brij™-35, and 2 mM DTT. The final reaction volume for each reaction is 10 μL. The reactions are initated by adding the substrate and stopped by the addition of 10 μL of a TR-FRET dilution buffer supplemented with a kinase quench buffer (10 mM EDTA final) and Tb-anti-pLRRKtide (2 nM final). The plate is further incubated at room temperature for another 60 minutes, and the fluorescent signals are read on an EnVision® multilabel plate reader (PerkinElmer, Waltham, MA) with excitation at 340 nm and emission at 495 and 520 nm. The assay signal is determined as a ratio of FRET-specific signal measured with emission filter at 520 nm to that of the signal measured with Tb-specific emission filter at 495 nm. IC50 values for compound-mediated enzyme inhibition are calculated using appropriate programs in GraphPad Prism software by plotting the logarithm of the compound concentrations versus percent inhibition. All reagents are purchased from Thermo Fisher Scientific.
(Time-resolved FRET reads energy transfer from a long-lived donor to a nearby acceptor.)

Chain of LRRK2 wild-type (Q5S007 970-2527): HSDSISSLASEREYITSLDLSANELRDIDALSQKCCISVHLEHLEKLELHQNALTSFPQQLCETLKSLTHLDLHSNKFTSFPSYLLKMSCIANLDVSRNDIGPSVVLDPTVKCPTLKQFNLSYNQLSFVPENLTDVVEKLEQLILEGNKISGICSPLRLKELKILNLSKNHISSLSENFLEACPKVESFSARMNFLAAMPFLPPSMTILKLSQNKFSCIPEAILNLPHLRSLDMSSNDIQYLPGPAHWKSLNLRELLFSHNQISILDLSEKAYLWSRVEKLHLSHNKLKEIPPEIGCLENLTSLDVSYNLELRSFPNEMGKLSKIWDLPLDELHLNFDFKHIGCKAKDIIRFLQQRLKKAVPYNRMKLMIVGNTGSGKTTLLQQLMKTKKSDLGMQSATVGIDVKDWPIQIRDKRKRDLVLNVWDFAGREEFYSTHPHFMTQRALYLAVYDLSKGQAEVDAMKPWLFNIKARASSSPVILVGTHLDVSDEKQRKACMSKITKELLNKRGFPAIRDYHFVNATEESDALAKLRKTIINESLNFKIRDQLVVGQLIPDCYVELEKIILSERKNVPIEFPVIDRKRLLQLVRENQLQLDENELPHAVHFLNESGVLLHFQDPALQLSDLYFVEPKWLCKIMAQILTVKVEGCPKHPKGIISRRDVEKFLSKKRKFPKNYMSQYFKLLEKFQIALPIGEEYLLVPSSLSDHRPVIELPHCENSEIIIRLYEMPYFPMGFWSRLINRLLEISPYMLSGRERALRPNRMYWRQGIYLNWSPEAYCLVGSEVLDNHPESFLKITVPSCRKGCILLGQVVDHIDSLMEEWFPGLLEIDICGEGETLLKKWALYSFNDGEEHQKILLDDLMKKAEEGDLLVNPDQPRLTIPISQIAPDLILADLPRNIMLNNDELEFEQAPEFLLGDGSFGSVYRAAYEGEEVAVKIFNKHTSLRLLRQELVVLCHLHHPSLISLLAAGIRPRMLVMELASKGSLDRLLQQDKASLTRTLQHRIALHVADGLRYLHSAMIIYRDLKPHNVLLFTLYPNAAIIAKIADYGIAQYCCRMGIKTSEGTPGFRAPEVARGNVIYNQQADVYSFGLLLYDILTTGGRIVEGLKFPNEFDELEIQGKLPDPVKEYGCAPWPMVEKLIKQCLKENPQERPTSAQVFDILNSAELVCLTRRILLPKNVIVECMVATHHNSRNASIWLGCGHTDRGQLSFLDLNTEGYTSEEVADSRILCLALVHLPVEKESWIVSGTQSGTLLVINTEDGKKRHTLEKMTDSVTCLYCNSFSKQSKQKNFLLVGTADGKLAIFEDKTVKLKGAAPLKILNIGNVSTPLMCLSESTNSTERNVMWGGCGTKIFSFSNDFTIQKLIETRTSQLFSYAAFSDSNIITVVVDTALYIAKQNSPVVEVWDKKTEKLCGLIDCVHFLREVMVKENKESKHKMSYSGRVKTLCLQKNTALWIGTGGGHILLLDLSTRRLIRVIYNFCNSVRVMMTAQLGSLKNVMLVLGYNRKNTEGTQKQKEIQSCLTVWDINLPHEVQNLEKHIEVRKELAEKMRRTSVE

Consider `O=C(COc1ccncc1)Nc1ccn2ncc(-c3cccc(C4CCCNC4)n3)c2c1` (stereo not drawn) [Example 76, N-(3-(6-(piperidin-3-yl)pyridin-2-yl)pyrazolo[1,5-a]pyridin-5-yl)-2-(pyridin-4-yloxy)acetamide], for which the half-inhibitory concentration (IC50) lay in the range of 11 to 100 nM.

As for `COc1cc(-c2cnn3ccccc23)nc(C2CCCNC2)c1` (stereo not drawn) [Example 27, 3-(4-methoxy-6-(piperidin-3-yl)pyridin-2-yl)pyrazolo[1,5-a]pyridine], the IC50 lay in the range of 101 to 400 nM.

Turning to `O=C(Nc1ccn2ncc(-c3cccc(C4CCCNC4)n3)c2c1)c1ccccn1` (stereo not drawn) [Example 72, N-(3-(6-(piperidin-3-yl)pyridin-2-yl)pyrazolo[1,5-a]pyridin-5-yl)picolinamide], the IC50 fell in the range of 11 to 100 nM.

Turning to `CNc1ccn2ncc(-c3cc(Cl)cc(N4CCNCC4)n3)c2c1` [Example 39, 3-(4-chloro-6-piperazin-1-yl-2-pyridyl)-N-methyl-pyrazolo[1,5-a]pyridin-5-amine], the half-inhibitory concentration (IC50) lay in the range of 11 to 100 nM.

Take `C[C@@H]1CN(c2cccc(-c3cnn4ccc(C(F)(F)F)cc34)n2)C[C@H](C)N1` [Example 55, 3-[6-[(3S,5R)-3,5-dimethylpiperazin-1-yl]-2-pyridyl]-5-(trifluoromethyl)pyrazolo[1,5-a]pyridine]: the half-inhibitory concentration (IC50) was ≤ 10 nM.

Regarding `c1cc(-c2cnn3ccc(OCC4COC4)cc23)nc(C2CCCNC2)c1` (stereo not drawn) [Example 15, 5-(oxetan-3-ylmethoxy)-3-[6-(3-piperidyl)-2-pyridyl]pyrazolo[1,5-a]pyridine], the IC50 lay in the range of 101 to 400 nM.

For `C[C@@H]1CN(c2cc(F)cc(-c3cnn4ccc(Cl)cc34)n2)C[C@H](C)N1` [Example 58, 5-chloro-3-[6-[(3R,5S)-3,5-dimethylpiperazin-1-yl]-4-fluoro-2-pyridyl]pyrazolo[1,5-a]pyridine], the IC50 is ≤ 10 nM.

`Cc1ccn2ncc(-c3cccc(C4CCCNC4)n3)c2c1` (stereo not drawn) [Example 9, 5-methyl-3-[6-(3-piperidyl)-2-pyridyl]pyrazolo[1,5-a]pyridine]: the 50% inhibitory concentration (IC50) is 11 to 100 nM.

As to `Clc1ccn2ncc(-c3cccc(N4CC5CC(C4)N5)n3)c2c1` [Example 46, 3-(6-(5-chloropyrazolo[1,5-a]pyridin-3-yl)pyridin-2-yl)-3,6-diazabicyclo[3.1.1]heptane], the half-inhibitory concentration (IC50) fell in the range of 11 to 100 nM.

`O=C(CNc1ccncc1)Nc1ccn2ncc(-c3cccc(C4CCCNC4)n3)c2c1` (stereo not drawn) [Example 79, N-(3-(6-(piperidin-3-yl)pyridin-2-yl)pyrazolo[1,5-a]pyridin-5-yl)-2-(pyridin-4-ylamino)acetamide]: the half-maximal inhibitory concentration (IC50) lay within 11 to 100 nM.

For the molecule `N#CCCC(=O)Nc1ccn2ncc(-c3cccc(C4CCCNC4)n3)c2c1` (stereo not drawn) [Example 74, 3-cyano-N-(3-(6-(piperidin-3-yl)pyridin-2-yl)pyrazolo[1,5-a]pyridin-5-yl)propanamide], the IC50 was 11 to 100 nM.

With `C[C@@H]1CN(c2cc(Cl)cc(-c3cnn4ccccc34)n2)C[C@H](C)N1` [Example 51, 3-[4-chloro-6-[(3S,5R)-3,5-dimethylpiperazin-1-yl]-2-pyridyl]pyrazolo[1,5-a]pyridine], the IC50 lay in the range of 11 to 100 nM.

On to `Clc1cc(-c2cnn3ccc(Cl)cc23)nc(N2CCNCC2)c1` [Example 43, 5-chloro-3-(4-chloro-6-piperazin-1-yl-2-pyridyl)pyrazolo[1,5-a]pyridine], for which the IC50 lay within 11 to 100 nM.

For the molecule `Clc1cc(-c2cnn3ccc(Cl)cc23)nc(N2CC3CC(C2)N3)c1` [Example 47, 5-chloro-3-[4-chloro-6-(3,6-diazabicyclo[3.1.1]heptan-3-yl)-2-pyridyl]pyrazolo[1,5-a]pyridine], the 50% inhibitory concentration (IC50) lay in the range of 101 to 400 nM.

Consider `FC(F)(F)c1ccn2ncc(-c3cc(Cl)cc(N4CCNCC4)n3)c2c1` [Example 41, 3-(4-chloro-6-piperazin-1-yl-2-pyridyl)-5-(trifluoromethyl) pyrazolo[1,5-a]pyridine], for which the 50% inhibitory concentration (IC50) was 11 to 100 nM.

For the molecule `O=C(Cc1ccccn1)Nc1ccn2ncc(-c3cccc(C4CCCNC4)n3)c2c1` (stereo not drawn) [Example 81, N-(3-(6-(piperidin-3-yl)pyridin-2-yl)pyrazolo[1,5-a]pyridin-5-yl)-2-(pyridin-2-yl)acetamide], the concentration for half-maximal inhibition (IC50) was 11 to 100 nM.

With `CS(=O)(=O)NCC(=O)Nc1ccn2ncc(-c3cccc(C4CCCNC4)n3)c2c1` (stereo not drawn) [Example 68, 2-(methylsulfonamido)-N-(3-(6-(piperidin-3-yl)pyridin-2-yl)pyrazolo[1,5-a]pyridin-5-yl)acetamide], the 50% inhibitory concentration (IC50) fell in the range of 11 to 100 nM.

For `Fc1cc(-c2cnn3ccccc23)nc(C2CCCNC2)c1` (stereo not drawn) [Example 31, 3-[4-fluoro-6-(3-piperidyl)-2-pyridyl]pyrazolo[1,5-a]pyridine], the concentration for half-maximal inhibition (IC50) lay in the range of 101 to 400 nM.

Turning to `C[C@@H]1CN(c2cccc(-c3cnn4ccc(Cl)cc34)n2)C[C@H](C)N1C` [Example 71, 5-chloro-3-(6-((3S,5R)-3,4,5-trimethylpiperazin-1-yl)pyridin-2-yl)pyrazolo[1,5-a]pyridine], the half-inhibitory concentration (IC50) was in the range of 11 to 100 nM.

Consider `FC(F)(F)c1ccn2ncc(-c3cccc(C4CCCNC4)n3)c2c1` (stereo not drawn) [Example 10, 3-[6-(3-piperidyl)-2-pyridyl]-5-(trifluoromethyl)pyrazolo[1,5-a]pyridine], for which the half-inhibitory concentration (IC50) lay in the range of 11 to 100 nM.

On to `C[C@@H]1CN(c2ccc(F)c(-c3cnn4ccc(Cl)cc34)n2)C[C@H](C)N1` [Example 64, 5-chloro-3-[6-[(3S,5R)-3,5-dimethylpiperazin-1-yl]-3-fluoro-2-pyridyl]pyrazolo[1,5-a]pyridine], for which the half-inhibitory concentration (IC50) was 11 to 100 nM.

In the case of `Clc1ccc(C2CCCNC2)nc1-c1cnn2ccccc12` (stereo not drawn) [Example 30, 3-(3-chloro-6-(piperidin-3-yl)pyridin-2-yl)pyrazolo[1,5-a]pyridine], the IC50 was in the range of 101 to 400 nM.

For `Fc1ccc(C2CCCNC2)nc1-c1cnn2ccccc12` (stereo not drawn) [Example 32, 3-[3-fluoro-6-(3-piperidyl)-2-pyridyl]pyrazolo[1,5-a]pyridine], the IC50 is 11 to 100 nM.

For `Clc1ccn2ncc(-c3cccc(C4CCNC4)n3)c2c1` (stereo not drawn) [Example 4, 5-chloro-3-(6-(pyrrolidin-3-yl)pyridin-2-yl)pyrazolo[1,5-a]pyridine], the IC50 lay in the range of 11 to 100 nM.

Regarding `Clc1ccn2ncc(-c3cccc([C@H]4CCCNC4)n3)c2c1` (single isomer, unassigned) [Example 7, (−)-5-chloro-3-(6-(piperidin-3-yl)pyridin-2-yl)pyrazolo[1,5-a]pyridine], the IC50 was ≤ 10 nM.

`FC(F)(F)c1ccn2ncc(-c3cc(Cl)cc(C4CCCNC4)n3)c2c1` (stereo not drawn) [Example 36, 3-(4-chloro-6-(piperidin-3-yl)pyridin-2-yl)-5-(trifluoromethyl)pyrazolo[1,5-a]pyridine]: the IC50 lay in the range of 11 to 100 nM.

In the case of `Brc1ccn2ncc(-c3cccc(C4CCCNC4)n3)c2c1` (stereo not drawn) [Example 8, 5-bromo-3-[6-(3-piperidyl)-2-pyridyl]pyrazolo[1,5-a]pyridine], the IC50 fell in the range of 11 to 100 nM.

For `O=C(CNc1cccnc1)Nc1ccn2ncc(-c3cccc(C4CCCNC4)n3)c2c1` (stereo not drawn) [Example 80, N-(3-(6-(piperidin-3-yl)pyridin-2-yl)pyrazolo[1,5-a]pyridin-5-yl)-2-(pyridin-3-ylamino)acetamide], the 50% inhibitory concentration (IC50) lay in the range of 11 to 100 nM.

With `C[C@H]1CN(c2cccc(-c3cnn4ccccc34)n2)CCN1` [Example 70, (S)-3-(6-(3-methylpiperazin-1-yl)pyridin-2-yl)pyrazolo[1,5-a]pyridine formate], the half-maximal inhibitory concentration (IC50) was in the range of 11 to 100 nM.

Regarding `N#Cc1ccn2ncc(-c3cccc(C4CCCNC4)n3)c2c1` (stereo not drawn) [Example 17, 3-[6-(3-piperidyl)-2-pyridyl]pyrazolo[1,5-a]pyridine-5-carbonitrile], the IC50 lay within 11 to 100 nM.
